For one data set, the target named is Human KCNQ2/3 channel (Homo sapiens (Human), UniProt O43525+O43526). The experiment in a line: Opening action with respect to KCNQ2/3 channel by depolarization stimulation (thallium influx, FLIPR). The class given is cell-based. The note with it: concentration giving 50% of maximum reaction of retigabine (10 μM); human KCNQ2/3 expression CHO-DHFR- cells; 5 mM potassium and 0.5 mM thallium; read-out: KCNQ2/3 ECrtg50. On the procedure: Human KCNQ2/3 expression cells (CHO-DHFR-cells) were seeded in each well of 384 well plate (collagen-coated, black, clear bottom) at 0.5×10^4 cells/50 μL per well, and cultured in a MEM ALPHA medium (containing 10 vol % inactivated (56° C., 30 min) Fetal Bovine Serum and 100 IU/mL Penicillin—100 μg/mL Streptomycin—2 mM L-Glutamine) at 37° C. in 5% CO2 for 18 to 24 hours. The medium in the plate was removed. Then, incubation (room temperature, 60 minutes, light-shielded) was carried out in a loading buffer (prepared by the method described in the manual of FluxOR Thallium Detection Kit (Invitrogen, F10016, F10017)). KCNQ2/3 channel opening action (thallium influx into cells) by the depolarization stimulation (5 mM potassium and 0.5 mM thallium) was measured by FLIPR TETRA (Molecular Devices). The compound of the present invention had been treated five minutes before the depolarization stimulation, and the reaction induced by the depolarization stimulation was measured over time for 180 seconds. The channel opening action of the compound of the present invention was evaluated based on the change amount of the fluorescence intensity from the time before the depolarization stimulation to the time after the passage of 180 seconds. Thus, the concentration (ECrtg50) satisfying 50% of the fluorescence intensity change of maximum reaction (at the time of 10 μM-treatment) of retigabine under this experiment condition was calculated.

Data set [1] is described as follows: Solubility test (DMSO precipitation method, Pharmacopoeia of Japan elution test second solution). Conditions: Pharmacopoeia of Japan elution test second solution pH=6.8, room temperature, five hours, quantitation range 5 to 100 μM; for solubility at 5 h: aqueous buffer, kinetic from dmso stock. Type of data set: physicochemical. On the procedure:
A calibration curve solution was prepared by diluting a test substance (10 mM DMSO solution) with acetonitrile and adding acetonitrile including an internal standard substance (candesartan) so as to be 0.1, 0.4, and 2 μM.
Sample solution was prepared as follows: 5 μL of the compound of the present invention (10 mM DMSO solution) was added to 495 μL of the Pharmacopoeia of Japan elution test second solution (pH=6.8), and the resulting mixture was stirred at room temperature for five hours. Then, the solution was placed into a solubility filter plate and subjected to suction filtration. The filtrate (20 μL) was diluted with acetonitrile, followed by adding acetonitrile including an internal standard substance ([…]).
The calibration curve and sample solutions in the amount of 5 μL were infused into LC-MS/MS (Discovery Max manufactured by Thermo Scientific) and subjected to quantitation (quantitation range: 5 to 100 μM).

One may read the Solubility as how much of the substance goes into solution per volume. What is called solubility is the dissolved amount per volume that the medium holds.

≈ marks a conversion by molar mass, not a printed value.

With `CC(O)(c1ccc(NC(=O)NCc2ccc(C(F)(F)F)cn2)cc1)C(F)(F)F` (centres unmarked) [Comparative Example 1, 1-[4-(1,1,1-trifluoro-2-hydroxy-2-propanyl)phenyl]-3-{[5-(trifluoromethyl)-2-pyridinyl]methyl}urea, reference compound], at Human KCNQ2/3 channel, the EC50 is more than 10000 nM.

For the compound `O=C(Cc1ccc(F)cc1)Nc1c(Cl)cc(Cl)cc1Br` [Comparative Example 2, N-(2-bromo-4,6-dichlorophenyl)-2-(4-fluorophenyl)acetamide, reference compound], in data set [1], the Solubility is less than 5 µM and the solubility at 5 h was less than 5 µM.

On to `CC(O)(c1cc(Cl)c(NC(=O)NCc2cccc(N3CCCCC3)n2)c(Cl)c1)C(F)(F)F` (centres unmarked) [Example 5 (3), 1-[2,6-dichloro-4-(1,1,1-trifluoro-2-hydroxy-2-propanyl)phenyl]-3-{[6-(1-piperidinyl)-2-pyridinyl]methyl}urea], for which the EC50 at Human KCNQ2/3 channel was determined as 500 nM.

For the compound `CC(NC(=O)Nc1c(Cl)cc(C(C)(O)C(F)(F)F)cc1Cl)C(C)(C)C` (centres unmarked) [Example 5 (4), 1-[2,6-dichloro-4-(1,1,1-trifluoro-2-hydroxy-2-propanyl)phenyl]-3-(3,3-dimethyl-2-butanyl)urea], the EC50 on Human KCNQ2/3 channel was 3 nM. Moreover, in data set [1], the solubility at 5 h stood at 79 µM (≈ 31.7 µg/mL).

With `CC1(C)CC(CNC(=O)Nc2c(Cl)cc(C(C)(O)C(F)(F)F)cc2Cl)CCO1` (centres unmarked) [Example 5 (5), 1-[2,6-dichloro-4-(1,1,1-trifluoro-2-hydroxy-2-propanyl)phenyl]-3-[(2,2-dimethyltetrahydro-2H-pyran-4-yl)methyl]urea], the EC50 on Human KCNQ2/3 channel was found to be 300 nM. Further, the solubility at 5 h in data set [1] was found to be 93 µM (≈ 41.2 µg/mL).

As to `CC(O)(c1cc(Cl)c(NC(=O)NCC2(O)CCC(F)(F)CC2)c(Cl)c1)C(F)(F)F` (centres unmarked) [Example 5 (6), 1-[2,6-dichloro-4-(1,1,1-trifluoro-2-hydroxy-2-propanyl)phenyl]-3-[(4,4-difluoro-1-hydroxycyclohexyl)methyl]urea], the EC50 on Human KCNQ2/3 channel was determined as 400 nM. The amount in solution in data set [1] (solubility at 5 h) came to 94 µM (≈ 43.7 µg/mL).

Consider `Cc1cccnc1CNC(=O)Nc1c(Cl)cc(C(C)(O)C(F)(F)F)cc1Cl` (centres unmarked) [Example 5 (7), 1-[2,6-dichloro-4-(1,1,1-trifluoro-2-hydroxy-2-propanyl)phenyl]-3-[(3-methyl-2-pyridinyl)methyl]urea], for which the EC50 at Human KCNQ2/3 channel was 500 nM.

Turning to `CC(O)(c1cc(Cl)c(NC(=O)NCc2ccc(Cl)s2)c(Cl)c1)C(F)(F)F` (centres unmarked) [Example 5 (8), 1-[(5-chloro-2-thienyl)methyl]-3-[2,6-dichloro-4-(1,1,1-trifluoro-2-hydroxy-2-propanyl)phenyl]urea], the EC50 on Human KCNQ2/3 channel came to 1 nM.

In the case of `CC(O)(c1cc(Cl)c(NC(=O)NCc2ncccc2C(F)(F)F)c(Cl)c1)C(F)(F)F` (centres unmarked) [Example 5 (9), 1-[2,6-dichloro-4-(1,1,1-trifluoro-2-hydroxy-2-propanyl)phenyl]-3-{[3-(trifluoromethyl)-2-pyridinyl]methyl}urea], the EC50 on Human KCNQ2/3 channel is 300 nM. This compound registered a solubility at 5 h in data set [1] of 91 µM (≈ 43.3 µg/mL).

On to `CC(O)(c1cc(Cl)c(NC(=O)NCC2CCCCC2)c(Cl)c1)C(F)(F)F` (centres unmarked) [Example 5 (10), 1-(cyclohexylmethyl)-3-[2,6-dichloro-4-(1,1,1-trifluoro-2-hydroxy-2-propanyl)phenyl]urea], for which the EC50 at Human KCNQ2/3 channel amounted to 0.3 nM.

With `CC(O)(c1cc(Cl)c(NC(=O)NCc2ccc(Br)cn2)c(Cl)c1)C(F)(F)F` (centres unmarked) [Example 5 (11), 1-[(5-bromo-2-pyridinyl)methyl]-3-[2,6-dichloro-4-(1,1,1-trifluoro-2-hydroxy-2-propanyl)phenyl]urea], the EC50 at Human KCNQ2/3 channel was 70 nM.

As for `CC(O)(c1cc(Cl)c(NC(=O)NCc2nccn2Cc2ccccc2)c(Cl)c1)C(F)(F)F` (centres unmarked) [Example 5 (12), 1-[(1-benzyl-1H-imidazole-2-yl)methyl]-3-[2,6-dichloro-4-(1,1,1-trifluoro-2-hydroxy-2-propanyl)phenyl]urea], the EC50 at Human KCNQ2/3 channel is 2900 nM.

Take `CC(O)(c1cc(Cl)c(NC(=O)NCc2cc(-c3ccccc3)on2)c(Cl)c1)C(F)(F)F` (centres unmarked) [Example 5 (16), 1-[2,6-dichloro-4-(1,1,1-trifluoro-2-hydroxy-2-propanyl)phenyl]-3-[(5-phenyl-1,2-oxazole-3-yl)methyl]urea]: the EC50 at Human KCNQ2/3 channel was determined as 10 nM.

On to `CC(O)(c1cc(Cl)c(NC(=O)NCc2ccc(C(F)(F)F)o2)c(Cl)c1)C(F)(F)F` (centres unmarked) [Example 5 (17), 1-[2,6-dichloro-4-(1,1,1-trifluoro-2-hydroxy-2-propanyl)phenyl]-3-{[5-(trifluoromethyl)-2-furyl]methyl}urea], for which the EC50 on Human KCNQ2/3 channel worked out at 3 nM.

On to `CC(C)[C@@H](C)NC(=O)Nc1c(Cl)cc(C(C)(O)C(F)(F)F)cc1Cl` (stereo partly drawn) [Example 5 (21), 1-[2,6-dichloro-4-(1,1,1-trifluoro-2-hydroxy-2-propanyl)phenyl]-3-[(2R)-3-methyl-2-butanyl]urea], for which the EC50 at Human KCNQ2/3 channel is 70 nM.

For the compound `CC(O)(c1cc(Cl)c(NC(=O)NCc2nc(C3CC3)no2)c(Cl)c1)C(F)(F)F` (centres unmarked) [Example 5 (22), 1-[(3-cyclopropyl-1,2,4-oxadiazole-5-yl)methyl]-3-[2,6-dichloro-4-(1,1,1-trifluoro-2-hydroxy-2-propanyl)phenyl]urea], the EC50 at Human KCNQ2/3 channel came to 700 nM. This compound gave a solubility at 5 h in data set [1] of 85 µM (≈ 37.3 µg/mL).

Take `CC(C)(C)c1cc(CNC(=O)Nc2c(Cl)cc(C(C)(O)C(F)(F)F)cc2Cl)no1` (centres unmarked) [Example 13, 1-[2,6-dichloro-4-(1,1,1-trifluoro-2-hydroxy-2-propanyl)phenyl]-3-{[5-(2-methyl-2-propanyl)-1,2-oxazole 3-yl]methyl}urea]: at Human KCNQ2/3 channel, the EC50 was 10 nM. In data set [1], this compound yielded a solubility at 5 h of 69 µM (≈ 31.3 µg/mL).

For `CC(O)(c1cc(Cl)c(NC(=O)NCc2ncc(C(F)(F)F)cn2)c(Cl)c1F)C(F)(F)F` (centres unmarked) [Example 43 (1), 1-[2,6-dichloro-3-fluoro-4-(1,1,1-trifluoro-2-hydroxy-2-propanyl)phenyl]-3-{[5-(trifluoromethyl)-2-pyrimidinyl]methyl}urea], on Human KCNQ2/3 channel, the EC50 was determined as 400 nM. In data set [1], this compound had a solubility at 5 h of 89 µM (≈ 44.1 µg/mL).

On to `CC(O)(c1cc(F)c(NC(=O)NCc2ccc(C(F)(F)F)cn2)c(Cl)c1)C(F)(F)F` (centres unmarked) [Example 49, 1-[2-chloro-6-fluoro-4-(1,1,1-trifluoro-2-hydroxy-2-propanyl)phenyl]-3-{[5-(trifluoromethyl)-2-pyridinyl]methyl}urea], for which the EC50 on Human KCNQ2/3 channel was determined as 600 nM.

For `CC(O)(c1cc(Cl)c(NC(=O)CCc2ccc(F)cc2)c(Cl)c1)C(F)(F)F` (centres unmarked) [Example 50 (2), N-[2,6-dichloro-4-(1,1,1-trifluoro-2-hydroxy-2-propanyl)phenyl]-3-(4-fluorophenyl)propanamide], at Human KCNQ2/3 channel, the EC50 is 30 nM. This compound also had a solubility at 5 h in data set [1] of 41 µM (≈ 17.4 µg/mL).

As to `CC(C)(C)CC(=O)Nc1c(Cl)cc(C(C)(O)C(F)(F)F)cc1Cl` (centres unmarked) [Example 50 (4), N-[2,6-dichloro-4-(1,1,1-trifluoro-2-hydroxy-2-propanyl)phenyl]-3,3-dimethylbutane amide], the EC50 on Human KCNQ2/3 channel was found to be 50 nM.

Take `CC(O)(c1cc(Cl)c(NC(=O)CCc2cccc(C(F)(F)F)c2)c(Cl)c1)C(F)(F)F` (centres unmarked) [Example 50 (6), N-[2,6-dichloro-4-(1,1,1-trifluoro-2-hydroxy-2-propanyl)phenyl]-3-[3-(trifluoromethyl)phenyl]propanamide]: the EC50 at Human KCNQ2/3 channel turned out to be 60 nM.

Turning to `CC(O)(c1cc(Cl)c(NC(=O)CCc2ccccc2C(F)(F)F)c(Cl)c1)C(F)(F)F` (centres unmarked) [Example 50 (7), N-[2,6-dichloro-4-(1,1,1-trifluoro-2-hydroxy-2-propanyl)phenyl]-3-[2-(trifluoromethyl)phenyl]propanamide], the EC50 at Human KCNQ2/3 channel turned out to be 40 nM.

For the compound `CC(O)(CC(F)(F)F)c1cc(Cl)c(NC(=O)NCc2ccc(C(F)(F)F)cn2)c(Cl)c1` (centres unmarked) [Example 67, 1-[2,6-dichloro-4-(4,4,4-trifluoro-2-hydroxy-2-butanyl)phenyl]-3-{[5-(trifluoromethyl)-2-pyridinyl]methyl}urea], the EC50 on Human KCNQ2/3 channel is 3500 nM.

For the compound `COC(C)(c1cc(Cl)c(NC(=O)NCc2ccc(C(F)(F)F)cn2)c(Cl)c1)C(F)(F)F` (centres unmarked) [Example 71, 1-[2,6-dichloro-4-(1,1,1-trifluoro-2-methoxy-2-propanyl)phenyl]-3-{[5-(trifluoromethyl)-2-pyridinyl]methyl}urea], the EC50 on Human KCNQ2/3 channel is 200 nM.

As for `NC(c1cc(Cl)c(NC(=O)NCc2cnc(C(F)(F)F)s2)c(Cl)c1)C(F)(F)F` (centres unmarked) [Example 79 (4), 1-[4-(1-amino-2,2,2-trifluoroethyl)-2,6-dichlorophenyl]-3-{[2-(trifluoromethyl)-1,3-thiazole-5-yl]methyl}urea], the EC50 at Human KCNQ2/3 channel was determined as 300 nM.
